Measured values published in the OligoGym collection.
Strand notation (5' to 3'): a small letter for the sugar, then the base; units joined by * are phosphorothioate-linked, units joined directly phosphodiester-linked; [ ] holds rarer units or linkages, { } end groups; capitals alone tell only the bases. d = 2'-deoxy (DNA); m = 2'-O-methyl

Columns and labels:
LINC-PINT [1] = experiment: HEK293-TLR7, 100 nM ASO, then resiquimod
LINC-PINT [2] = experiment: HEK293-TLR8, 100 nM ASO, then resiquimod
EGFR [3] = experiment: HEK293-TLR7, 100 nM ASO, then resiquimod
EGFR [4] = experiment: HEK293-TLR8, 100 nM ASO, then resiquimod

Row | Substance | TLR7 signal (NF-kB luciferase) (% of resiquimod alone) (LINC-PINT [1]) | TLR8 potentiation (NF-kB luciferase) (fold of resiquimod alone) (LINC-PINT [2]) | TLR7 signal (NF-kB luciferase) (% of resiquimod alone) (EGFR [3]) | TLR8 potentiation (NF-kB luciferase) (fold of resiquimod alone) (EGFR [4])
1 | mA*mA*mA*mA*mA*dG*dT*dG*dG*dG*dA*dA*dA*dT*dA*mA*mA*mG*mG*mU | 28.8 | 1.34 | – | –
2 | mA*mA*mA*mA*mG*dT*dG*dG*dG*dA*dA*dA*dT*dA*dA*mA*mG*mG*mU*mU | 30.9 | 1.48 | – | –
3 | mA*mA*mA*mG*mU*dC*dA*dA*dA*dA*dA*dG*dA*dA*dA*mA*mA*mC*mU*mG | 45.6 | 1.62 | – | –
4 | mA*mA*mA*mU*mG*dT*dC*dC*dT*dG*dG*dC*dC*dC*dT*mC*mA*mC*mU*mG | 46.5 | 1.45 | – | –
5 | mA*mC*mC*mC*mU*dT*dC*dT*dC*dT*dC*dT*dG*dG*dT*mC*mC*mC*mA*mU | 43.4 | 2.55 | – | –
6 | mA*mG*mC*mC*mG*dA*dA*dC*dA*dG*dA*dA*dG*dG*dA*mG*mC*mG*mU*mC | 27.7 | 2.54 | – | –
7 | mA*mG*mU*mU*mU*dA*dT*dA*dG*dA*dT*dT*dT*dC*dA*mA*mG*mU*mA*mG | 37.6 | 3.06 | – | –
8 | mA*mU*mG*mA*mC*dA*dT*dT*dT*dC*dG*dT*dG*dG*dC*mU*mC*mC*mU*mA | 32.5 | 0.88 | – | –
9 | mC*mA*mA*mG*mC*dC*dC*dC*dA*dG*dC*dG*dT*dT*dC*mC*mU*mC*mC*mG | 45.2 | 2.74 | – | –
10 | mC*mA*mC*mC*mC*dT*dT*dC*dT*dC*dT*dC*dT*dG*dG*mU*mC*mC*mC*mA | 73.3 | 1.85 | – | –
11 | mC*mA*mC*mU*mG*dT*dA*dT*dT*dT*dT*dA*dT*dT*dA*mC*mA*mG*mA*mA | 58.1 | 2.67 | – | –
12 | mC*mA*mU*mC*mC*dC*dT*dT*dC*dT*dG*dC*dT*dG*dC*mC*mA*mA*mG*mC | 54.3 | 2.95 | – | –
13 | mC*mC*mA*mU*mC*dC*dC*dT*dT*dC*dT*dG*dC*dT*dG*mC*mC*mA*mA*mG | 52.6 | 2.38 | – | –
14 | mC*mC*mC*mU*mA*dA*dT*dG*dC*dT*dT*dT*dC*dC*dT*mC*mU*mC*mC*mA | 58.4 | 2.7 | – | –
15 | mC*mC*mC*mU*mU*dC*dT*dC*dT*dC*dT*dG*dG*dT*dC*mC*mC*mA*mU*mC | 49.6 | 2.6 | – | –
16 | mC*mC*mU*mA*mU*dT*dA*dA*dA*dA*dA*dA*dA*dT*dT*mU*mA*mU*mA*mC | 109 | 2.19 | – | –
17 | mC*mC*mU*mU*mC*dT*dC*dT*dC*dT*dG*dG*dT*dC*dC*mC*mA*mU*mC*mC | 60.9 | 3.01 | – | –
18 | mC*mC*mU*mU*mC*dT*dG*dC*dT*dG*dC*dC*dA*dA*dG*mC*mC*mC*mC*mA | 85.6 | 1.45 | – | –
19 | mC*mU*mC*mU*mC*dT*dG*dG*dT*dC*dC*dC*dA*dT*dC*mC*mC*mU*mU*mC | 85 | 2.73 | – | –
20 | mC*mU*mU*mC*mU*dC*dT*dC*dT*dG*dG*dT*dC*dC*dC*mA*mU*mC*mC*mC | 56.2 | 2.92 | – | –
21 | mC*mU*mU*mU*mA*dT*dA*dT*dT*dA*dC*dA*dA*dA*dG*mC*mU*mA*mC*mU | 54.8 | 2.11 | – | –
22 | mG*mA*mU*mG*mG*dT*dT*dC*dC*dA*dG*dT*dC*dC*dC*mU*mC*mU*mU*mC | 22.3 | 0.84 | – | –
23 | mG*mC*mA*mA*mG*dG*dC*dA*dG*dA*dG*dA*dA*dA*dC*mU*mC*mC*mA*mG | 20 | 1.45 | – | –
24 | mG*mC*mG*mU*mA*dG*dT*dT*dT*dC*dT*dC*dT*dT*dC*mC*mU*mC*mC*mC | 27.2 | 1.86 | – | –
25 | mG*mG*mG*mU*mC*dT*dC*dC*dT*dC*dC*dA*dC*dA*dC*mC*mC*mU*mU*mC | 21.5 | 0.87 | – | –
26 | mG*mG*mU*mC*mC*dC*dA*dT*dC*dC*dC*dT*dT*dC*dT*mG*mC*mU*mG*mC | 20.8 | 1.28 | – | –
27 | mG*mG*mU*mC*mU*dC*dC*dT*dC*dC*dA*dC*dA*dC*dC*mC*mU*mU*mC*mU | 23.7 | 1.29 | – | –
28 | mG*mU*mC*mC*mC*dA*dT*dC*dC*dC*dT*dT*dC*dT*dG*mC*mU*mG*mC*mC | 22.5 | 1.37 | – | –

Row | Substance | TLR7 signal (NF-kB luciferase) (% of resiquimod alone) (LINC-PINT [1]) | TLR8 potentiation (NF-kB luciferase) (fold of resiquimod alone) (LINC-PINT [2]) | TLR7 signal (NF-kB luciferase) (% of resiquimod alone) (EGFR [3]) | TLR8 potentiation (NF-kB luciferase) (fold of resiquimod alone) (EGFR [4])
29 | mG*mU*mC*mC*mG*dT*dA*dC*dC*dT*dC*dC*dA*dC*dC*mC*mA*mC*mC*mG | 22.8 | 1.7 | – | –
30 | mG*mU*mC*mU*mC*dC*dT*dC*dC*dA*dC*dA*dC*dC*dC*mU*mU*mC*mU*mC | 25 | 1.98 | – | –
31 | mG*mU*mU*mC*mA*dG*dT*dC*dA*dG*dA*dT*dC*dG*dC*mU*mG*mG*mG*mA | 17.5 | 1.55 | – | –
32 | mU*mA*mG*mG*mC*dA*dC*dT*dT*dT*dG*dC*dC*dT*dC*mC*mU*mU*mC*mU | – | – | 58.9 | 2.29
33 | mU*mA*mU*mU*mC*dA*dT*dA*dT*dT*dT*dT*dT*dA*dT*mU*mU*mC*mA*mG | 87.1 | 4.47 | – | –
34 | mU*mC*mC*mC*mA*dA*dC*dT*dC*dT*dT*dC*dT*dA*dA*mC*mU*mC*mG*mU | 40.8 | 3.7 | – | –
35 | mU*mC*mC*mC*mA*dT*dC*dC*dC*dT*dT*dC*dT*dG*dC*mU*mG*mC*mC*mA | 43.1 | 3.95 | – | –
36 | mU*mC*mG*mG*mC*dA*dT*dC*dC*dA*dC*dC*dA*dC*dG*mU*mC*mG*mU*mC | – | – | 53.7 | 1.39
37 | mU*mC*mU*mC*mU*dC*dT*dG*dG*dT*dC*dC*dC*dA*dT*mC*mC*mC*mU*mU | 43.8 | 3.68 | – | –
38 | mU*mC*mU*mC*mU*dG*dG*dT*dC*dC*dC*dA*dT*dC*dC*mC*mU*mU*mC*mU | 78.2 | 5.44 | – | –
39 | mU*mC*mU*mG*mG*dT*dC*dC*dC*dA*dT*dC*dC*dC*dT*mU*mC*mU*mG*mC | 29.4 | 3.36 | – | –
40 | mU*mG*mA*mA*mG*dT*dA*dA*dA*dA*dA*dT*dC*dA*dA*mU*mA*mG*mC*mG | – | – | 30 | 1.96
41 | mU*mG*mA*mC*mA*dA*dA*dA*dC*dA*dA*dT*dA*dA*dT*mA*mA*mC*mA*mG | 36.7 | 1.31 | – | –
42 | mU*mG*mA*mC*mA*dT*dT*dT*dC*dG*dT*dG*dG*dC*dT*mC*mC*mU*mA*mC | 33.6 | 1.73 | – | –
43 | mU*mG*mA*mU*mG*dA*dT*dG*dC*dT*dT*dG*dC*dA*dG*mG*mA*mG*mG*mC | 25.5 | 1.18 | – | –
44 | mU*mG*mC*mU*mA*dT*dT*dC*dA*dT*dA*dT*dT*dT*dT*mU*mA*mU*mU*mU | 42.4 | 3.01 | – | –
45 | mU*mG*mG*mC*mG*dT*dA*dG*dT*dT*dT*dC*dT*dC*dT*mU*mC*mC*mU*mC | 32.8 | 2.48 | – | –
46 | mU*mG*mG*mG*mC*dT*dG*dG*dA*dA*dT*dC*dC*dG*dA*mG*mU*mU*mA*mU | – | – | 36.1 | 1.92
47 | mU*mG*mU*mA*mG*dA*dG*dA*dA*dA*dT*dT*dA*dT*dT*mU*mU*mA*mG*mG | – | – | 61.4 | 2.99
48 | mU*mG*mU*mC*mC*dT*dT*dG*dC*dA*dC*dG*dT*dG*dG*mC*mU*mU*mC*mG | – | – | 62.7 | 2.61
49 | mU*mU*mA*mC*mU*dT*dT*dA*dA*dA*dA*dG*dC*dA*dA*mA*mA*mG*mG*mA | – | – | 35 | 2.27
50 | mU*mU*mG*mA*mA*dG*dT*dG*dA*dA*dG*dT*dA*dA*dA*mA*mG*mG*mA*mG | – | – | 31.8 | 0.96
51 | mU*mU*mU*mA*mC*dG*dG*dT*dT*dT*dT*dC*dA*dG*dA*mA*mU*mA*mU*mC | – | – | 40.6 | 3.63
52 | mU*mU*mU*mG*mA*dA*dG*dT*dG*dA*dA*dG*dT*dA*dA*mA*mA*mG*mG*mA | – | – | 35.2 | 2.58
53 | mU*mU*mU*mU*mG*dA*dA*dG*dT*dG*dA*dA*dG*dT*dA*mA*mA*mA*mG*mG | – | – | 51.6 | 3.08
54 | mU*mU*mU*mU*mG*dA*dA*dG*dT*dG*dT*dT*dT*dA*dA*mU*mA*mU*mU*mC | – | – | 78.9 | 4.09
55 | mU*mU*mU*mU*mU*dG*dA*dA*dG*dT*dG*dT*dT*dT*dA*mA*mU*mA*mU*mU | – | – | 59 | 3.43
